Broadly, the melting point is the temperature of the solid-liquid transition. `N#CC12CC3CC(CC(C3)C1)C2` showed a melting point of 195 °C.

For the compound `Cc1nc2cc3ccccc3cc2o1`, the melting point came to 87 °C. For `CCOC(=O)C1=C(C)OC(N)=C(c2nc3ccccc3s2)C1c1ccc(N(C)C)cc1` (centres undefined) the value was 215 °C; for `CCC(C)c1cc([N+](=O)[O-])cc([N+](=O)[O-])c1OC(=O)C=C(C)C` (centres undefined), 70 °C. Compound `Cc1noc(-c2ccccc2)c1C=O` showed a melting point of 85 to 87 °C. With `CCCCCCCCC(Br)C(=O)O` (centres undefined), the melting point was 4 °C. The compound `N#Cc1c(C(F)(F)F)cc(-c2cccs2)[nH]c1=O` returned a melting point of 293 to 295 °C. With `COc1cc(N=Nc2c(Br)cc([N+](=O)[O-])cc2[N+](=O)[O-])c(NC(C)=O)c(N(CCOC(C)=O)CCOC(C)=O)c1`, the melting point is 132 °C. `CCOC(=O)c1c(C=O)c(C)n(-c2ccccc2)c1C` had a melting point of 78 to 81 °C. For `Cc1ccc2sc(CO)cc2c1`, the melting point was in the range of 93 to 94 °C. Consider `COC(=O)c1c(C)oc(C)c1S(=O)(=O)Cl`, for which the melting point lay within 70 to 71 °C. For `Cc1ccc([N+](=O)[O-])cc1Cl` the value was 66.5 °C. Consider `Oc1ccc(C2COc3cc(O)ccc3C2)cc1` (centres undefined), for which the melting point worked out at 190 °C. `COc1cccc(CNC(=O)c2[nH]c3ccccc3c2CCO)c1` yielded a melting point of 151 °C. Consider `Clc1cccc2ccccc12`, for which the melting point is -2.5 °C. `CC(=O)C(Cc1ccccc1)C(=O)OC1CC(C)CCC1C(C)C` (centres undefined) came in with a melting point of 68 °C. `CC1(C)OC(C)(C(O)(c2ccccc2)c2ccccc2)CCC1C(=O)O` (centres undefined) had a melting point of 163 °C. Regarding `Clc1ccc(Nc2ncnc3c2cnn3-c2ccccc2)cc1`, the melting point fell in the range of 218 to 220 °C. In turn, `O=S(=O)(c1ccccc1)N(F)S(=O)(=O)c1ccccc1` gave a melting point of 110 to 115 °C. For `OC1C(C2COC3(CCCCC3)O2)OC2OC3(CCCCC3)OC21` (centres undefined) the value was 129 to 135 °C. Take `CC1(C)C(C=C(Cl)Cl)C1C(=O)OCc1cccc(Oc2ccccc2)c1` (centres undefined): the melting point was found to be 34.5 °C.

The compound `CC1C(=O)OC2CCN3CC=C(COC(=O)C(C)(O)C1(C)O)C23` (centres undefined) returned a melting point of 197 to 204 °C. The compound `COC(=O)c1ccccc1S(=O)(=O)NC(=O)Nc1nc(C)cc(C)n1` displayed a melting point of 204 °C. As for `COC(=O)C1=C(C(=O)OC)C(=O)C(=C2C=Cc3ccccc3N2)C1=O`, the figure is 362 to 363 °C; as for `O=C(Nc1ccccc1)C(Cl)=NNc1ccccc1`, 159 to 161 °C. `Ic1cccs1`: the melting point was -40 °C. `CC1(C)OC(=O)C(=Cc2ccc(-c3ccc([N+](=O)[O-])cc3)o2)C(=O)O1`: the melting point was 221 °C.

`N#Cc1ccc([N+](=O)[O-])cc1C(F)(F)F` returned a melting point of 52 to 54 °C. Regarding `CC1CCC(O)CC1=CC=C1CCCC2(C)C1CCC2C(C)C=CC(C)C(C)C` (centres undefined), the melting point amounted to 126 °C. `CCOC(=O)C(=O)Nc1cc(C(F)(F)F)cc(C(F)(F)F)c1` showed a melting point of 90 to 92 °C. Compound `CC1=CCCC(C)(C)C1/C=C/C(C)=C/C=C/C(C)=C/C=C/C=C(C)/C=C/C=C(C)/C=C/C1=C(C)CCCC1(C)C` (centres undefined) displayed a melting point of 188 °C. For `O=C1CCN2C(=O)c3ccccc3CC2C1` (centres undefined) the value was 126 °C; for `CNS(=O)(=O)O`, 189 to 193 °C. Regarding `O=C(O)Cc1csc2ccc(Cl)cc12`, the melting point was 154 °C.

In turn, `O=C1C2CCC1C1CCC2O1` gave a melting point of 81 °C. `COc1ccc(C(=O)c2cc(OC)c(OC)cc2[N+](=O)[O-])cc1` showed a melting point of 147 °C.

`CC1(C(=O)O)CCC(CCc2ccccc2)C1(C)C` (centres undefined): the melting point was 118 °C. In the case of `O=S(=O)(Cl)c1ccc(C(F)(F)F)cc1Cl`, the melting point came to 37 °C. For `Nc1nc(-c2ccc(Br)s2)cs1`, the melting point was 170 °C. `N#CCc1cccc(I)c1` had a melting point of 34 °C. As to `CCOC(=O)c1sc2sc(C(=O)OCC)c(C)c2c1C`, the melting point came out at 187 °C. Compound `N#CC1CN(Cc2ccccc2)CN(Cc2ccccc2)C1` gave a melting point of 80 °C. In turn, `CC(C)(C)c1nn(-c2ccccc2)c(N)c1Cn1nnc2ccccc21` returned a melting point of 124 °C. In turn, `Cc1c(C(=O)CBr)cnn1-c1ccccc1` yielded a melting point of 94 to 96 °C.

In the case of `Cc1cc(C(=O)O)cc(Cl)n1`, the melting point was determined as 193 °C. As for `CCCCCCOC(=O)CCC`, the figure is -78 °C; as for `N#Cc1c(F)cc(Br)cc1F`, 81 °C. Consider `CC(CO)c1c(O)c(O)c2c(c1O)C(=O)C(=O)C1C(C)(C)CCCC21C` (centres undefined), for which the melting point stood at 239 °C. Regarding `O=C(O)c1ccc(=O)oc1`, the melting point was 203 to 205 °C. In turn, `Cc1ccc(NC=C2C(=O)NN=C2c2c(O)c3ccccc3n(C)c2=O)cc1` had a melting point of 282 °C. With `CC(=O)OCC(OC(C)=O)C(OC1OC(COC(C)=O)C(OC(C)=O)C(OC(C)=O)C1OC(C)=O)C(OC(C)=O)C(C#N)OC(C)=O` (centres undefined), the melting point came out at 132 °C. `CC1(C)OC(C(O)CO)C(C(O)CO)O1` (centres undefined) had a melting point of 87 °C. As for `CC1C(=O)CCCC1=O`, the figure is 206 °C. In turn, `COc1ccc(-c2ocnc2C(=O)O)cc1` registered a melting point of 147 to 151 °C. `O=[N+]([O-])c1ccc(Oc2c(Cl)cc(S(=O)(=O)Cl)cc2Cl)c(Cl)c1` gave a melting point of 159 to 160 °C. The compound `CCOC(=O)c1sc(N)nc1C` registered a melting point of 177 to 178 °C.

`O=C=Nc1ccc(Br)cc1` registered a melting point of 41 °C. For `Cc1cc(C(=O)NNCc2ccccc2)no1` the value was 106 °C; for `CC(C)c1ncc[nH]1`, 129 °C. On to `CC1NC(=O)NC1CCCCCC(=O)O` (centres undefined), for which the melting point was 157 °C. `CC(=O)Nc1ccc(N=Nc2ccc([N+]([O-])=Nc3ccc(NC(C)=O)cc3)cc2)cc1` yielded a melting point of 317 °C. In the case of `Nc1ccc(S(=O)(=O)Nc2cnccn2)cc1`, the melting point came out at 251 °C.

Compound `CC(C)=CC(=O)C=C(C)C` returned a melting point of 28 °C. `C=Cc1ccc(CC)cc1` returned a melting point of -49.7 °C. For `O=C(OCCc1cc([N+](=O)[O-])c(CCOC(=O)c2ccccc2)cc1[N+](=O)[O-])c1ccccc1`, the melting point was 157 to 158 °C. For `COc1nsc(Nc2ccc(Br)cc2)n1`, the melting point was in the range of 237 to 239 °C.

Regarding `O=C(O)c1cnc(O)nc1-c1ccncc1`, the melting point lay within 309 to 310 °C. Compound `Nc1ccc2c(c1)C(=O)OC21c2ccc(O)cc2Oc2cc(O)ccc21` displayed a melting point of 223 °C. `O=CNC1CC=CCC(NC=O)CC=CC1` (centres undefined): the melting point fell in the range of 289 to 290 °C. In turn, `O=C(O)Cc1cn(-c2ccccc2)nc1-c1ccc(Cl)cc1` had a melting point of 150 °C. With `CC(C)(C)c1cc([N+](=O)[O-])cc([N+](=O)[O-])c1O`, the melting point came to 126 °C. Consider `CC(CCC(C(=O)O)C(C)C)C(=O)O` (centres undefined), for which the melting point turned out to be 104 °C. For the compound `Oc1ccc(C(F)(F)F)cc1`, the melting point worked out at 46 °C. The compound `O=S(=O)(Cl)c1sccc1Br` yielded a melting point of 39 to 41.5 °C.

In the case of `O=S(=O)(c1ccc(N=C=S)cc1)N1CCCCC1`, the melting point lay in the range of 126 to 127 °C. Consider `Cc1nnc2sc(SCc3ccc(Cl)cc3)nn2c1=O`, for which the melting point is 171 to 172 °C. As for `Cc1ccc(-c2snc(Cl)c2C#N)cc1`, the figure is 82 to 83 °C. As for `Cc1ccc(Br)cc1Br`, the figure is -9.7 °C. As for `CC(=O)c1nn(-c2cccc([N+](=O)[O-])c2)c(=NC(=O)c2ccccc2)s1`, the figure is 196 °C; as for `CC(=O)N(CC(O)CO)c1c(I)c(C(=O)NCC(O)CO)c(I)c(C(=O)NCC(O)CO)c1I` (centres undefined), 177 °C. In turn, `CC(=O)OC1CCCc2c(C)ccc(C)c21` (centres undefined) showed a melting point of 52 °C. For the compound `N#CC=P(c1ccccc1)(c1ccccc1)c1ccccc1`, the melting point was 189 to 198 °C. For the compound `CC1CCc2cc3c(cc2N1C(=O)c1ccccc1)CCC(C)N3C(=O)c1ccccc1` (centres undefined), the melting point was found to be 270 °C. Compound `NNc1ncnc2sc3c(c12)CCCC3` registered a melting point of 178 to 179 °C. In turn, `C1CCSSC1` returned a melting point of 32.5 °C. `C=CC1CC=CCC1` (centres undefined) gave a melting point of -109 °C. Regarding `NCCCCCCCCCCN`, the melting point came out at 62.5 °C. For the compound `CN1C(=O)CN(C(=O)OC(C)(C)C)[C@@H]1C(C)(C)C`, the melting point fell in the range of 66 to 70 °C. Compound `O=C(C=NO)Nc1ccccc1` came in with a melting point of 175 °C. For `CCCCC(c1ccccc1)c1ccccc1` the value was -12 °C. `NC(=O)c1sc(Nc2ccc(Cl)cc2)nc1N`: the melting point fell in the range of 220 to 222 °C. Compound `CCOC(=O)c1ccc([N+](=O)[O-])cc1NC(=O)c1ccccc1` had a melting point of 179 °C. In turn, `O=[N+]([O-])c1ccc2c3c(cccc13)-c1ccccc1-2` yielded a melting point of 153 to 157 °C. `CCNc1nc2c(cc1C(=O)OCC)c(=O)oc1ccccc12`: the melting point came to 186 °C. In the case of `CC(C)OC(=O)C(C)(C)Oc1ccc(C(=O)c2ccc(Cl)cc2)cc1`, the melting point came to 80.5 °C.

On to `ON=C1CCCc2c1nc(-c1ccccc1)n2O`, for which the melting point was 270 to 272 °C. As for `CC12CC3(C)CC(C)(C1)CC(Br)(C2)C3`, the figure is 101 to 102 °C; as for `OCCOc1cccc2ccccc12`, 45 °C; as for `COc1ccc(N(CCCC(=O)O)C(=O)c2ccc(Cl)cc2)cc1`, 116 °C.

Compound `O=C(O)c1ccccc1/N=N/C1SC(=S)N(c2ccccc2)C1=O` (centres undefined) had a melting point of 199 °C. For `Nc1ccc(C(=O)O)cc1OC(F)(F)F` the value was 168 to 169 °C. As for `C=CC1(OC(C)=O)CCC2(C)C(CCC3C2CCC2(C)C3CCC23OCCO3)C1` (centres undefined), the figure is 101 to 109 °C; as for `Cc1cc(C)c(O)c(C)c1C`, 80.5 °C. `OCC1(c2ccc(Cl)cc2)CC1` had a melting point of 50 to 54 °C.

For the origin of these results see a melting point compilation (Tetko et al.).
